# Reference: US8252825B2, “Angiotensin II receptor antagonists” (NicOx, priority 2007, dated 2012)
# Legend:
# [1] = system: conscious telemetered dogs; experiment: Systolic blood pressure lowering after oral administration to conscious telemetered dogs; format: in vivo, dog; conditions: 10 mg/kg
# Text: Compounds 1 and 2 shown below were studied for systolic blood pressure lowering when orally administered to conscious telemetered dogs.
# [2] = system: isolated rabbit thoracic aorta preparations; experiment: Vessel relaxation assay in isolated rabbit thoracic aorta rings; format: cell-based; conditions: Oryctolagus cuniculus; rabbit aortic rings precontracted with noradrenaline, functional endothelium
# Experimental: The ability of the compounds to induce vasorelaxation was tested in vitro in isolated rabbit thoracic aorta preparations (Wanstall J. C. et al., Br. J. Pharmacol., 134:463-472, 2001). Male New Zealand rabbits were anaesthetized with thiopental-Na (50 mg/kg, iv), sacrificed by exsanguinations and then the thorax was opened and the aorta dissected. Aortic ring preparations (4 mm in length) were set up in physiological salt solution (PSS) at 37° C. in small organ chambers (5 ml). The composition of PSS was (mM): NaCl 130, NaHCO3 14.9, KH2PO4 1.2, MgSO4 1.2, HEPES 10, CaCl2, ascorbic acid […] and glucose 1.1 (95% O2/5% CO2; pH 7.4). Each ring was mounted under 2 g passive tension. Isometric tension was recorded with a Grass transducer (Grass FT03) attached to a BIOPAC MP150 System. Preparations were allowed to equilibrate for 1 h, and then contracted submaximally with noradrenaline (NA, 1 μM) and, when the contraction was stable, acetylcholine (ACh, 10 μM) was added. A relaxant response to ACh indicated the presence of a functional endothelium. […] When a stable precontraction was reached, a cumulative concentration-response curve to either of the vasorelaxant agents was obtained in the presence of a functional endothelium. Each arterial ring was exposed to only one combination of inhibitor and vasorelaxant. […]
# Example 3 and 4 were evaluated for vessel relaxation.
Compound,"Approximate change in systolic blood pressure (mmHg), 1-6 h ([1]; 1-6 h) [mmHg]","Approximate change in systolic blood pressure (mmHg), 6-12 h ([1]; 6-12 h) [mmHg]","Approximate change in systolic blood pressure (mmHg), 12-18 h ([1]; 12-18 h) [mmHg]",EC50 [2] [µM]
CCCCc1nc(Cl)c(C(=O)OC(C)OC(=O)OCCCC[C@H](CO[N+](=O)[O-])O[N+](=O)[O-])n1Cc1ccc(-c2ccccc2-c2nnn[nH]2)cc1 (some centres unmarked) [Compound 1],−14,−7,3,
"CCCCc1nc(Cl)c(C(=O)OC(C)OC(=O)OCCC(C)[C@@H](O[N+](=O)[O-])[C@@H](C)O[N+](=O)[O-])n1Cc1ccc(-c2ccccc2-c2nnn[nH]2)cc1 (stereo partly drawn) [Example 3, 1-[({[(4R,5R)-3-methyl-4,5-bis(nitrooxy)hexyl]oxy}carbonyl)oxy]ethyl 2-butyl-4-chloro-1-{[2′-(1H-tetrazol-5-yl)biphenyl-4-yl]methyl}-1H-imidazole-5-carboxylate]",,,,8.5
"CCOc1nc2cccc(C(=O)OC(C)(C)OC(=O)OCCC(C)[C@@H](O[N+](=O)[O-])[C@@H](C)O[N+](=O)[O-])c2n1Cc1ccc(-c2ccccc2-c2nnn[nH]2)cc1 (stereo partly drawn) [Example 4, 1-[({[(4R,5R)-3 Methyl-4,5-bis(nitrooxy)hexyl]oxy}carbonyl)oxy]-1-methylethyl 2-ethoxy-1-{[2′-(1H-tetrazol-5-yl)biphenyl-4-yl]methyl}-1H-benzimidazole-7-carboxylate]",,,,6.4
